Data published in PubChem BioAssay (NCI).
“And” between values parts separate entries of the source, which are not always exact repeats. Equal values may be shown once.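 Cultured in 96-well plates, cells were exposed to test compound for 48 hours across five concentrations. Abbreviation: GI50, concentration required for 50% inhibition of growth. The concentration for full growth arrest is given as TGI.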

Experiments:
Test in all cases: DTP human tumour cell line panel, 48 h
MDA-MB-435 = system: MDA-MB-435
786-0 renal = system: 786-0 renal
ACHN renal = system: ACHN renal
A549 NSCLC = system: A549 NSCLC
HOP-18 NSCLC = system: HOP-18 NSCLC
OVCAR-4 ovarian = system: OVCAR-4 ovarian
LXFL 529 NSCLC = system: LXFL 529 NSCLC
TK-10 renal = system: TK-10 renal
HCC-2998 colon = system: HCC-2998 colon
BT-549 breast = system: BT-549 breast

Compound | GI50 (MDA-MB-435) | TGI (MDA-MB-435) | GI50 (786-0 renal) | TGI (786-0 renal) | GI50 (ACHN renal) | TGI (ACHN renal) | GI50 (A549 NSCLC) | TGI (A549 NSCLC) | TGI (HOP-18 NSCLC) | GI50 (OVCAR-4 ovarian) | TGI (OVCAR-4 ovarian) | TGI (LXFL 529 NSCLC) | GI50 (TK-10 renal) | TGI (TK-10 renal) | GI50 (HCC-2998 colon) | TGI (HCC-2998 colon) | TGI (BT-549 breast) | GI50 (HOP-18 NSCLC) | GI50 (LXFL 529 NSCLC)
S=c1nc[nH]c2nc[nH]c12 | 0.61 µM | > 750 µM | 0.7 µM and 5.34 µM | > 750 µM | 4.88 µM | > 737 µM | 65.9 µM | > 100 µM and 714 µM and > 750 µM | 644 µM | 70.8 µM and 61.2 µM | > 100 µM and 618 µM and > 750 µM | > 720 µM | 58 µM and 10.2 µM | > 100 µM and 549 µM and 332 µM | 2.93 µM and 11.7 µM | > 100 µM and 463 µM and > 750 µM | > 750 µM | – | –
O=C(c1ccco1)c1ccccc1C(=O)c1ccco1 | – | – | – | > 100 µM | – | > 100 µM | – | > 100 µM | > 100 µM | – | > 100 µM | > 100 µM | – | > 100 µM | – | > 100 µM | – | – | –
CSc1c(S(C)=O)[nH]c2cc(Br)cc(Br)c12 (stereo not given) | – | – | – | 31.9 µM | – | 88.2 µM | – | 78.9 µM | 80.5 µM | – | – | 48.8 µM | – | 78.1 µM | – | 34.7 µM | – | – | –
CC(C)[C@](O)(C(=O)OCC1=CC[N+]2([O-])CC[C@@H](O)[C@@H]12)[C@H](C)O (stereo not given in full) | – | > 10000 µM | – | > 10000 µM | – | > 10000 µM | – | > 10000 µM | > 10000 µM | – | > 10000 µM | – | – | > 10000 µM | – | > 10000 µM | > 10000 µM | – | –
Cc1cc2c(=O)cc(-c3ccc(C(F)(F)F)cc3)oc2c(C(=O)O)c1C | – | – | – | > 100 µM | – | > 100 µM | – | > 100 µM | > 100 µM | – | > 100 µM | > 100 µM | – | > 100 µM | – | – | – | – | –
[C-]#[O+].[C-]#[O+].[Ir].[O-]c1ccc2ccccc2c1N=Nc1ccccc1 | – | 54.4 µM | 3.39 µM | 12.2 µM | – | 13.8 µM | – | 70.1 µM | 10.3 µM | – | 24.7 µM | – | – | 17.3 µM | – | 29.4 µM | 40.1 µM | 0.313 µM | –
CCOC(=O)C1(Br)C(c2ccccc2)NC(=O)N(C2OC(COC(=O)c3ccccc3)C(OC(=O)c3ccccc3)C2OC(=O)c2ccccc2)C1(C)Br (stereo not given) | – | – | – | > 100 µM | – | > 100 µM | – | > 100 µM | > 100 µM | – | 43.4 µM | > 75.7 µM | – | > 100 µM | – | > 100 µM | – | – | –
COc1ccc(C(=O)Nc2ccc(S(=O)(=O)NCC(=O)O)cc2)cc1 | – | – | – | > 100 µM | – | > 100 µM | – | > 100 µM | > 100 µM | – | > 100 µM | > 100 µM | – | > 100 µM | – | > 100 µM | – | – | –
Cc1ccc(/C=N/NS(=O)(=O)c2ccccc2)cc1 | – | – | – | > 100 µM | – | > 100 µM | – | > 100 µM | > 100 µM | – | > 100 µM | > 100 µM | – | > 100 µM | – | > 100 µM | – | – | –
N.N.N.N.N.N#N.[Cl-].[Os+7] | – | – | > 100 µM | > 100 µM | – | – | > 100 µM | > 100 µM | > 100 µM | > 100 µM | > 100 µM | > 100 µM | > 100 µM | > 100 µM | > 100 µM | > 100 µM | – | > 100 µM | > 100 µM
NCCn1ccc(NC(c2ccccc2)(c2ccccc2)c2ccccc2)nc1=O | – | – | – | 31.8 µM | – | > 100 µM | – | 75.7 µM | > 100 µM | – | > 100 µM | 30.3 µM | – | 85 µM | – | 31.9 µM | – | – | –
